Where two headings read alike, the source gives them in different places.
Key:
healthy subjects = assay: Exposure-safety analysis; type: in vivo, human
[1] = system: patients with solid tumors; settings: cited from earlier work
[2] = system: swine subjected to hemorrhage and polytrauma; settings: intravenous VPA, absence of isotonic fluid resuscitation; cited from earlier work
blood brain barrier = settings: swine subjected to TBI and hemorrhagic shock; cited from earlier work
[3] = 140 mg/kg dose, oral dosing; cited from earlier work
[4] = Single-dose plasma pharmacokinetics of intravenous VPA; settings: for concentration at 24 h / AUC / AUC(0-inf) / Cmax / half-life: human, plasma; for concentration at 24 h: intravenous; for AUC / AUC(0-inf) / Cmax / half-life: iv
[5] = 2-Compartment population model (final model), mean (SD)
[6] = 3-Compartment population model, mean (SD)

**Q.** For `CCCC(CCC)C(=O)O` [VPA, valproic acid], which “Dose breakpoint for occurrence of adverse events” value (healthy subjects; Chills) is on record?
**A.** > 6597 mg

**Q.** And the “Dose breakpoint for occurrence of adverse events” value (healthy subjects; Hearing adverse events)?
**A.** > 3222 mg

**Q.** What about the “Maximum tolerated dose (MTD)” value ([1]; cancer patients, intravenous, daily for five days) of the same molecule?
**A.** 60 mg/kg/day

**Q.** What about the “Previously established maximum tolerated single intravenous dose” value ([1]; ref 21) of the same molecule?
**A.** 60 mg/kg

**Q.** And the “Previously established maximum intravenous dose” value ([1]; ref 22)?
**A.** 75 mg

**Q.** And the “Previously established maximum tolerated single intravenous dose” value ([1]; ref 22)?
**A.** 75 mg/kg

**Q.** And the Decrease in mortality [2]?
**A.** 50%

**Q.** What about the “Expression of tight-junction and basement membrane associated proteins (zona occludin-1, laminin, claudin-5)” value (blood brain barrier) of the same molecule?
**A.** increased expression

**Q.** What about the Peak plasma concentrations [3] of the same molecule?
**A.** 300 to 400 µg/mL

**Q.** What about the “Q1, intercompartmental clearance between central and first peripheral compartment” value [4, 5] of the same molecule?
**A.** 0.64 (0.32) L/h

**Q.** And the “Vc, volume of distribution of the central compartment” value [4, 5]?
**A.** 11.1 (2.62) L

**Q.** And the “Vp1, volume of distribution of the first peripheral compartment” value [4, 5]?
**A.** 7.70 (3.28) L

**Q.** What about the “Q1, intercompartmental clearance between central and first peripheral compartment” value [4, 6] of the same molecule?
**A.** 0.62 (0.29) L/h

**Q.** What about the “Q2, intercompartmental clearance between central and second peripheral compartment” value [4, 6] of the same molecule?
**A.** 3.48(1.47) L/h

**Q.** And the “Vp1, volume of distribution of the first peripheral compartment” value [4, 6]?
**A.** 7.63 (3.29) L

**Q.** And the “Vp2, volume of distribution of the second peripheral compartment” value [4, 6]?
**A.** 0.32(0.06) L

**Q.** And the concentration at 24 h ([4]; 15 mg/kg)?
**A.** 22.6 µg/mL

**Q.** What about the concentration at 24 h ([4]; 30 mg/kg) of the same molecule?
**A.** 39.5 µg/mL

**Q.** What about the concentration at 24 h ([4]; 60 mg/kg) of the same molecule?
**A.** 39.8 µg/mL

**Q.** What about the concentration at 24 h ([4]; 90 mg/kg) of the same molecule?
**A.** 56.9 µg/mL

**Q.** And the concentration at 24 h ([4]; 120 mg/kg)?
**A.** 49.7 µg/mL

**Q.** And the concentration at 24 h ([4]; 130 mg/kg)?
**A.** 97.2 µg/mL

**Q.** What about the concentration at 24 h ([4]; 140 mg/kg) of the same molecule?
**A.** 140 µg/mL

**Q.** And the concentration at 24 h ([4]; 150 mg/kg)?
**A.** 81.4 µg/mL

**Q.** What about the AUC ([4]; 15 mg/kg) of the same molecule?
**A.** 1180 µg·h/mL

**Q.** What about the AUC(0-inf) ([4]; 15 mg/kg) of the same molecule?
**A.** 1710 µg·h/mL

**Q.** What about the Cmax ([4]; 15 mg/kg) of the same molecule?
**A.** 112 µg/mL

**Q.** What about the half-life ([4]; 15 mg/kg) of the same molecule?
**A.** 726 min

**Q.** And the AUC ([4]; 30 mg/kg)?
**A.** 2200 µg·h/mL

**Q.** What about the AUC(0-inf) ([4]; 30 mg/kg) of the same molecule?
**A.** 3390 µg·h/mL

**Q.** And the Cmax ([4]; 30 mg/kg)?
**A.** 235 µg/mL

**Q.** And the half-life ([4]; 30 mg/kg)?
**A.** 726 min

**Q.** What about the AUC ([4]; 60 mg/kg) of the same molecule?
**A.** 2240 µg·h/mL

**Q.** What about the AUC(0-inf) ([4]; 60 mg/kg) of the same molecule?
**A.** 3040 µg·h/mL

**Q.** And the Cmax ([4]; 60 mg/kg)?
**A.** 248 µg/mL

**Q.** And the half-life ([4]; 60 mg/kg)?
**A.** 678 min

**Q.** And the AUC ([4]; 90 mg/kg)?
**A.** 4630 µg·h/mL

**Q.** What about the AUC(0-inf) ([4]; 90 mg/kg) of the same molecule?
**A.** 5810 µg·h/mL

**Q.** And the Cmax ([4]; 90 mg/kg)?
**A.** 541 µg/mL

**Q.** What about the half-life ([4]; 90 mg/kg) of the same molecule?
**A.** 534 min

**Q.** What about the AUC ([4]; 120 mg/kg) of the same molecule?
**A.** 3840 µg·h/mL

**Q.** What about the AUC(0-inf) ([4]; 120 mg/kg) of the same molecule?
**A.** 4980 µg·h/mL

**Q.** What about the Cmax ([4]; 120 mg/kg) of the same molecule?
**A.** 537 µg/mL

**Q.** What about the half-life ([4]; 120 mg/kg) of the same molecule?
**A.** 540 min

**Q.** What about the AUC ([4]; 130 mg/kg) of the same molecule?
**A.** 7740 µg·h/mL

**Q.** And the AUC(0-inf) ([4]; 130 mg/kg)?
**A.** 11300 µg·h/mL

**Q.** What about the Cmax ([4]; 130 mg/kg) of the same molecule?
**A.** 855 µg/mL

**Q.** And the half-life ([4]; 130 mg/kg)?
**A.** 528 min

**Q.** What about the AUC ([4]; 140 mg/kg) of the same molecule?
**A.** 9870 µg·h/mL

**Q.** And the AUC(0-inf) ([4]; 140 mg/kg)?
**A.** 13500 µg·h/mL

**Q.** What about the Cmax ([4]; 140 mg/kg) of the same molecule?
**A.** 1270 µg/mL

**Q.** What about the half-life ([4]; 140 mg/kg) of the same molecule?
**A.** 582 min

**Q.** And the AUC ([4]; 150 mg/kg)?
**A.** 6910 µg·h/mL

**Q.** And the AUC(0-inf) ([4]; 150 mg/kg)?
**A.** 8520 µg·h/mL

**Q.** And the Cmax ([4]; 150 mg/kg)?
**A.** 694 µg/mL

**Q.** What about the half-life ([4]; 150 mg/kg) of the same molecule?
**A.** 474 min
